Source: patent US20260224588A1, “BENZODIAZEPINONE-DERIVED INHIBITORS OF EGFR AND HER2” (The Research Foundation for the State University of New York, priority 2023, published 2026)

Key:
Assay in all cases: KINOMEscan
Type in all cases: binding
Conditions in all cases: 1 μM of compound 4; read-out: POC
[1] = target: T1, ERK3 (Homo sapiens, UniProt Q16659)
T1 construct: purchased Eurofins DiscoverX Corporation

[2] = target: T2, TXK (Homo sapiens, UniProt P42681)
T2 construct: purchased Eurofins DiscoverX

[3] = target: MLK3 (Homo sapiens, UniProt Q16584)
[4] = target: PKN1 (Homo sapiens, UniProt Q16512)
[5] = target: T3, PCTK3 (Homo sapiens, UniProt Q07002)
T3 construct: purchased Eurofins DiscoverX Corporation (KINOMEscan)

[6] = target: T4, SGK3 (Homo sapiens, UniProt Q96BR1)
T4 construct: purchased Eurofins DiscoverX (KINOMEscan service)

[7] = target: ANKK1 (Homo sapiens, UniProt Q8NFD2)
[8] = target: CDC2L1 (Homo sapiens, UniProt P21127)
[9] = target: T5, PAK4 (Homo sapiens, UniProt O96013)
T5 construct: purchased Eurofins DiscoverX Corporation (KINOMEscan)

[10] = target: MTOR (Homo sapiens, UniProt P42345)
[11] = target: T6, RSK3(Kin.Dom.2-C-terminal) (Homo sapiens, UniProt Q15349)
T6 construct: RSK3(Kin.Dom.2-C-terminal); purchased Eurofins DiscoverX (KINOMEscan service)

[12] = target: T7, TRKC (Homo sapiens, UniProt Q16288)
T7 construct: purchased Eurofins DiscoverX Corporation
T7 sequence (Q16288 32-839): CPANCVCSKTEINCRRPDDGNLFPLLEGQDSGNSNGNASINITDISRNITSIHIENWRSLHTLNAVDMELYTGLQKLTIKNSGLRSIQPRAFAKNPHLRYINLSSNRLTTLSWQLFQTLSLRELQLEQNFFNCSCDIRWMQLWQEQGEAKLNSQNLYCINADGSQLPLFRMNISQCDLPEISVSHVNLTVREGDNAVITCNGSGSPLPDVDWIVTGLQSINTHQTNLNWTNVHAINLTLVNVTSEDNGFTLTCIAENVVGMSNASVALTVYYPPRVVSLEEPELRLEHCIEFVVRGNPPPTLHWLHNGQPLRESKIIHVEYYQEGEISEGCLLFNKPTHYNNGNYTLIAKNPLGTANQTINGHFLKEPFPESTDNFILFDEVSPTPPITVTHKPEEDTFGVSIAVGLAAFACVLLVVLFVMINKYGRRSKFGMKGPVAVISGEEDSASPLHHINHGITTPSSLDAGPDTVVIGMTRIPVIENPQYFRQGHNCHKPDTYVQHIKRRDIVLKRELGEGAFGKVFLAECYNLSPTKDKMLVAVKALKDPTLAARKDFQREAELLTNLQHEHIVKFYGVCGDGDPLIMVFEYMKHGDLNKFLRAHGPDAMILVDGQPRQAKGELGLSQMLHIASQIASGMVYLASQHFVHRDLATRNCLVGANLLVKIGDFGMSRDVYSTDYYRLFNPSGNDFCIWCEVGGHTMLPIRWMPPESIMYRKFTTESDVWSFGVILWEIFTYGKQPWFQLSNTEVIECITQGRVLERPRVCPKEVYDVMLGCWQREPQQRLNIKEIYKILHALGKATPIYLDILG

[13] = target: T8, FGFR2 (Homo sapiens, UniProt P21802)
T8 construct: purchased Eurofins DiscoverX Corporation

[14] = target: CDK4-cyclinD3 (Homo sapiens, UniProt P11802)
Chain of CDK4-cyclinD3 (P11802 whole entry): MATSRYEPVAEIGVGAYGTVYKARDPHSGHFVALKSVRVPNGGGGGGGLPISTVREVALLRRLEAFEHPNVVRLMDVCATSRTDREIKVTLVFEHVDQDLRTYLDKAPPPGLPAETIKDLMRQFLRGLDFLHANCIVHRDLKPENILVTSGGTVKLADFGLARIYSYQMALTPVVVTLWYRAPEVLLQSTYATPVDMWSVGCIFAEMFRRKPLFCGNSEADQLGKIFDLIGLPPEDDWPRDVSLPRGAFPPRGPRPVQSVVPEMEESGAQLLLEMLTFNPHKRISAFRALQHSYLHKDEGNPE
Chain of CDK4-cyclinD3 (P30281 whole entry partner): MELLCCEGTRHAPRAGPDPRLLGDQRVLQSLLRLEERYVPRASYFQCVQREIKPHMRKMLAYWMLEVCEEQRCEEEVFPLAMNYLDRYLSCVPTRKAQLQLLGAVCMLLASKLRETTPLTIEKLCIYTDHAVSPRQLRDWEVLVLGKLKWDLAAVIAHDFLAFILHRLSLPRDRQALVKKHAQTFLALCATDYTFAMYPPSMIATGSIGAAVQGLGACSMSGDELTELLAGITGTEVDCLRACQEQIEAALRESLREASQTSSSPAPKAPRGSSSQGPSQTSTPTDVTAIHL

[15] = target: MEK1 (Homo sapiens, UniProt Q02750)
[16] = target: CSNK1A1L (Homo sapiens, UniProt Q8N752)
[17] = target: CLK1 (Homo sapiens, UniProt P49759)
Chain of CLK1 (P49759 whole entry): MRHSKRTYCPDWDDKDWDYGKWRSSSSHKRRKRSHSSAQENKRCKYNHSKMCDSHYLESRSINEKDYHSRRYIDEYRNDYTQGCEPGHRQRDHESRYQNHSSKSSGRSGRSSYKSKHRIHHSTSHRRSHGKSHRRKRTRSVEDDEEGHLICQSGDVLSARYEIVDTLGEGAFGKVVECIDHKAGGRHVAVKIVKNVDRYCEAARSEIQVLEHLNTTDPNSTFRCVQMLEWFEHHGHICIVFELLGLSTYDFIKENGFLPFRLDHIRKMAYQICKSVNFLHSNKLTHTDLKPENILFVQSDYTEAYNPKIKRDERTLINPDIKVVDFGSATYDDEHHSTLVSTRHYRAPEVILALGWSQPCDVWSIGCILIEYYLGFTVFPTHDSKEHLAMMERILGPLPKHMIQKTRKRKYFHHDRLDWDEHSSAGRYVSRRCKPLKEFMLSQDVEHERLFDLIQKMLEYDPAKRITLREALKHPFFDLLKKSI

[18] = target: T9, ERBB2 (Homo sapiens, UniProt P04626)
T9 construct: purchased Eurofins DiscoverX Corporation

[19] = target: MET(Y1235D) (Homo sapiens, UniProt P08581, Y1235D)
[20] = target: KIT(V559D) (Homo sapiens, UniProt P10721, V559D)
[21] = target: T10, NLK (Homo sapiens, UniProt Q9UBE8)
T10 construct: purchased Eurofins DiscoverX Corporation (KINOMEscan)
T10 sequence (Q9UBE8 whole entry): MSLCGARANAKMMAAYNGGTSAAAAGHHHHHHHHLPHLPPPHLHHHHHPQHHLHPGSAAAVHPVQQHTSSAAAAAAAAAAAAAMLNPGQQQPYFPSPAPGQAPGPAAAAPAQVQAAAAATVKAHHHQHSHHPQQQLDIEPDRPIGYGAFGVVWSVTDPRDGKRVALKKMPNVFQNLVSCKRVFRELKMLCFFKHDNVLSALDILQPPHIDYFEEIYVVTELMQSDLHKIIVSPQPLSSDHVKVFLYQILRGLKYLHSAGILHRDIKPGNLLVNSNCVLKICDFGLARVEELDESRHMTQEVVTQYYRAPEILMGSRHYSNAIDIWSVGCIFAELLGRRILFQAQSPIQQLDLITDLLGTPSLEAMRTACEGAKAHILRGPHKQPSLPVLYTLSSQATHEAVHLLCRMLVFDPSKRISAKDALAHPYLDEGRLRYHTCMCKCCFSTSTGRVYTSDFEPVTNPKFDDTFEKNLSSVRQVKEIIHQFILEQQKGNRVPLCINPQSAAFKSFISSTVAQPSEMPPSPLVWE

[22] = target: PIK3CA(H1047Y) (Homo sapiens, UniProt P42336, H1047Y)
Chain of PIK3CA(H1047Y) (P42336 whole entry H1047Y): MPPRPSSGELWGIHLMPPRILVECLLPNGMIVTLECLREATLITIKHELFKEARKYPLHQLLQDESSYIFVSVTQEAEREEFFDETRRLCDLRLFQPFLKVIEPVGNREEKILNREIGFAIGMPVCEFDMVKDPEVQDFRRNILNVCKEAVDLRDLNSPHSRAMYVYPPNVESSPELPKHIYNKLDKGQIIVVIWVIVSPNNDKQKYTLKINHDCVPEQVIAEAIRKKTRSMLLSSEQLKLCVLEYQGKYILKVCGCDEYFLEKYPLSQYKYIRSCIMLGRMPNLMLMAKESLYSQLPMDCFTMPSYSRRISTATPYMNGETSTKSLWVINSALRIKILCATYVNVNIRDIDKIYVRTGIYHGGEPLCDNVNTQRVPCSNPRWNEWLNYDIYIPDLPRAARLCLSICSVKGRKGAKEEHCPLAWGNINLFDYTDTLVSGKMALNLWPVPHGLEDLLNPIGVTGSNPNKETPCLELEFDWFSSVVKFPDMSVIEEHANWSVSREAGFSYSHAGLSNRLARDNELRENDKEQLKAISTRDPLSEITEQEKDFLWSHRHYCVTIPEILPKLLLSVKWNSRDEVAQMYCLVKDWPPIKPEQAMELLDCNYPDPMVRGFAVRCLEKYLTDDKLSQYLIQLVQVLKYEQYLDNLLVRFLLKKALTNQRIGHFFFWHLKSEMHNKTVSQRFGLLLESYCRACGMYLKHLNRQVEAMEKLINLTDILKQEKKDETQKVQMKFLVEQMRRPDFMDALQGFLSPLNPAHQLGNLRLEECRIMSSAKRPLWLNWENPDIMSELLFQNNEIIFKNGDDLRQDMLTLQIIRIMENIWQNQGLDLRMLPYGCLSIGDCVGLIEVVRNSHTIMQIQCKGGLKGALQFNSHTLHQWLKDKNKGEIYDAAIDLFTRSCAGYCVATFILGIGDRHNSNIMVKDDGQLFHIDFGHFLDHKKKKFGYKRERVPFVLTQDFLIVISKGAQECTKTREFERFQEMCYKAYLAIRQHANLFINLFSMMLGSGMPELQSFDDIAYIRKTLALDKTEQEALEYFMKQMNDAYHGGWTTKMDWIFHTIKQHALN

[23] = target: MYO3A (Homo sapiens, UniProt Q8NEV4)
[24] = target: T11, FLT3(R834Q) (Homo sapiens, UniProt P36888, R834Q)
T11 construct: purchased Eurofins DiscoverX Corporation

[25] = target: T12, RPS6KA5(Kin.Dom.2-C-terminal) (Homo sapiens, UniProt O75582)
T12 construct: RPS6KA5(Kin.Dom.2-C-terminal); purchased Eurofins DiscoverX Corporation (KINOMEscan screening service)
T12 sequence (O75582 426-687 limits assumed): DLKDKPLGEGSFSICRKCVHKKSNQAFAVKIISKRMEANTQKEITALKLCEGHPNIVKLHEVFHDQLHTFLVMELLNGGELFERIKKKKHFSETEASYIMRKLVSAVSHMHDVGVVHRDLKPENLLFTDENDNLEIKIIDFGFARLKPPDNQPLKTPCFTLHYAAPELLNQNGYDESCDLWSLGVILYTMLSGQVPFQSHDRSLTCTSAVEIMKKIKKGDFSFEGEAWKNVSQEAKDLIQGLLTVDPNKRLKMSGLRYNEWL

[26] = target: BRSK1 (Homo sapiens, UniProt Q8TDC3)
[27] = target: INSR (Homo sapiens, UniProt P06213)
[28] = target: T13, FLT3(N841I) (Homo sapiens, UniProt P36888, N841I)
T13 construct: purchased Eurofins DiscoverX Corporation

[29] = target: IKK-beta (Homo sapiens, UniProt O14920)
[30] = target: LRRK2(G2019S) (Homo sapiens, UniProt Q5S007, G2019S)
[31] = target: T14, RSK4(Kin.Dom.1-N-terminal) (Homo sapiens, UniProt Q9UK32)
T14 construct: RSK4(Kin.Dom.1-N-terminal); purchased Eurofins DiscoverX (KINOMEscan service)

[32] = target: T15, ULK1 (Homo sapiens, UniProt O75385)
T15 construct: purchased Eurofins DiscoverX

[33] = target: T16, RSK2(Kin.Dom.1-N-terminal) (Homo sapiens, UniProt P51812)
T16 construct: RSK2(Kin.Dom.1-N-terminal); purchased Eurofins DiscoverX Corporation (KINOMEscan screening service)
T16 sequence (P51812 68-327 limits assumed): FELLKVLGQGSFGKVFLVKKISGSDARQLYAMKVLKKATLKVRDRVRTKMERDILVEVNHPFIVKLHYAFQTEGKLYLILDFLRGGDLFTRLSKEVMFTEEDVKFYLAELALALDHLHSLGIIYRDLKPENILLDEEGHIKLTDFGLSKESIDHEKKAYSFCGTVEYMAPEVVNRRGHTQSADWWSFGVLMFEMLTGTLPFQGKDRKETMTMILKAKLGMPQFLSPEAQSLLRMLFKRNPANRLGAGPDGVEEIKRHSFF

[34] = target: T17, RPS6KA4(Kin.Dom.2-C-terminal) (Homo sapiens, UniProt O75676)
T17 construct: RPS6KA4(Kin.Dom.2-C-terminal); purchased Eurofins DiscoverX Corporation (KINOMEscan screening service)
T17 sequence (O75676 411-674 limits assumed): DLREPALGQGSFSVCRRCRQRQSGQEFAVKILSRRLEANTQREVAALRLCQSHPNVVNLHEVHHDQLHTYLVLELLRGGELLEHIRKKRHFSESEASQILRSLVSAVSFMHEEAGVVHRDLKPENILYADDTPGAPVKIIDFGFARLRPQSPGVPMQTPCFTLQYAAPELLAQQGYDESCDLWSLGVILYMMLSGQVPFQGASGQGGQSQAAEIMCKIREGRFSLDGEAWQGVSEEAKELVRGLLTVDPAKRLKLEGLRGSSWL

[35] = target: T18, FLT3(D835Y) (Homo sapiens, UniProt P36888, D835Y)
T18 construct: purchased Eurofins DiscoverX Corporation

T1 sequence (Q16659 whole entry): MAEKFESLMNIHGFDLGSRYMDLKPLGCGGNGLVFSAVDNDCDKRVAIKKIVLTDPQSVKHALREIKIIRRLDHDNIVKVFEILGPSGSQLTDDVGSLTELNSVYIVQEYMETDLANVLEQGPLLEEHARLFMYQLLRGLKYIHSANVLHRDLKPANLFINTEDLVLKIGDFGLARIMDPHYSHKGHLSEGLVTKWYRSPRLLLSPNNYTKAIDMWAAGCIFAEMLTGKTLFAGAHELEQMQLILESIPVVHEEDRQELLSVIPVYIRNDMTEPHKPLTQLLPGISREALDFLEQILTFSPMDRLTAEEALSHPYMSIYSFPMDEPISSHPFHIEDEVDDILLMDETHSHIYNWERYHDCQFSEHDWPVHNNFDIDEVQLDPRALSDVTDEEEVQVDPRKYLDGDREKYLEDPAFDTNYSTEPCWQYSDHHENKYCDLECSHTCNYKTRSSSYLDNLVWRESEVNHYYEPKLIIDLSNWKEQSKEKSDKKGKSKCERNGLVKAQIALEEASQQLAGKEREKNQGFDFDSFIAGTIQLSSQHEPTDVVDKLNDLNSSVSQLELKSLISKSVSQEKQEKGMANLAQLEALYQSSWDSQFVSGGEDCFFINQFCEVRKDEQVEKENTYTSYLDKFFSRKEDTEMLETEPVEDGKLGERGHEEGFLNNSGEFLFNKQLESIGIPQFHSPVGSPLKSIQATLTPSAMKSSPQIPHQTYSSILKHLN

C=CC(=O)Nc1ccc(OC)c(Nc2cc(-c3[nH]c(CC)nc3-c3cccc(NC(=O)c4cccc5c4NC(=O)c4ccccc4N5)c3)ccn2)c1 [Compound 4, N-(3-(5-(2-((5-Acrylamido-2-methoxyphenyl)amino)pyridin-4-yl)-2-ethyl-1H-imidazol-4-yl)phenyl)-11-oxo-10,11-dihydro-5H-dibenzo[b,e][1,4]diazepine-9-carboxamide]
remaining binding at 1 µM [1]: 100%
remaining binding at 1 µM [2]: 42%
remaining binding at 1 µM [3]: 97%
remaining binding at 1 µM [4]: 88%
remaining binding at 1 µM [5]: 93%
remaining binding at 1 µM [6]: 90%
remaining binding at 1 µM [7]: 87%
remaining binding at 1 µM [8]: 100%
remaining binding at 1 µM [9]: 89%
remaining binding at 1 µM [10]: 100%
remaining binding at 1 µM [11]: 80%
remaining binding at 1 µM [12]: 87%
remaining binding at 1 µM [13]: 100%
remaining binding at 1 µM [14]: 49%
remaining binding at 1 µM [15]: 100%
remaining binding at 1 µM [16]: 91%
remaining binding at 1 µM [17]: 100%
remaining binding at 1 µM [18]: 18%
remaining binding at 1 µM [19]: 97%
remaining binding at 1 µM [20]: 100%
remaining binding at 1 µM [21]: 48%
remaining binding at 1 µM [22]: 66%
remaining binding at 1 µM [23]: 14%
remaining binding at 1 µM [24]: 100%
remaining binding at 1 µM [25]: 100%
remaining binding at 1 µM [26]: 100%
remaining binding at 1 µM [27]: 97%
remaining binding at 1 µM [28]: 97%
remaining binding at 1 µM [29]: 88%
remaining binding at 1 µM [30]: 100%
remaining binding at 1 µM [31]: 100%
remaining binding at 1 µM [32]: 100%
remaining binding at 1 µM [33]: 100%
remaining binding at 1 µM [34]: 75%
remaining binding at 1 µM [35]: 96%
